Assay results published in patent publication US20200023206A1, “SYSTEMS AND METHODS FOR ULTRASOUND MODULATION OF NEURONS” (THE TRUSTEES OF COLUMBIA UNIVERSITY IN THE CITY OF NEW YORK, priority 2016, published 2020).
Where “and” joins values, the source holds several entries; their conditions need not be identical. Equal entries are not always repeated. Entries after “also recorded” stand apart in the source; their conditions may differ.

Assays:
[1] = tested on: ultrasound-induced currents in HEK cells; assay: Sodium substitution with NMDG on ultrasound-induced currents (patch clamp); type: cell-based; conditions: N=5 cells
Excerpt: FIGS. 21A-21B are diagrams illustrating exemplary effects of sodium substitution with N-methyl-d-glucamine (NMDG) on ultrasound-induced currents. FIG. 21A illustrates representative examples of ultrasound-induced currents in control solution (Ringers), NMDG-Ringers (without sodium), and in Ringers washout (black, first stimulus; blue, second; red, third). As embodied herein, the cell was held at −90 mV. Ultrasound stimulation parameters were 3.1 MHz, 1.88 MPa, 25 μs, 1 stimulus, 30 s intervals. FIG. 21B illustrates NMDG substitution on ultrasound-induced currents (N=5 cells). As embodied herein, responses to three stimulus presentations per condition were averaged and normalized to the mean amplitude in the control condition for each cell. Cells were held at −90 mV. […] Additionally or alternatively, and as embodied herein, an extracellular cation, such as sodium, can be used to mediate US-induced inward currents. For example and not limitation, as embodied herein, cells were stimulated with US, first in Ringers solution (with sodium), then in an N-methyl-d-glucamine (NMDG)-based Ringer solution (without sodium). NMDG can be utilized at least in part because most mammalian cation channels can be impermeable to this large cation. As embodied herein, each cell was stimulated with US five times at −90 and +30 mV alternatively. The same stimuli were applied 10 minutes following NMDG replacement of sodium and 10 minutes following washout with Ringers (with sodium). […] The first three responses were used to calculate the mean amplitude of the responses in each condition. With reference to FIGS. 21A and 21B, in 4/5 cells, a reduction in US-activated currents with NMDG substitution was shown; however, in most cases, the effect was not reversible, as shown for example in FIG. 21B. This can be due at least in part because NMDG was not effectively washed out of chamber during the washout period (˜10 minutes). Additionally or alternatively, the lack of reversibility can indicate cellular rundown over the course of the stimulations.

[2] = tested on: ultrasound-induced whole-cell currents in HEK cells; assay: Ruthenium red on ultrasound-induced whole-cell currents (patch clamp, Chamber B+laser); type: cell-based; conditions: RR 10 μM
Excerpt: FIGS. 20A-20D are diagrams illustrating ruthenium red (RR) on ultrasound (US)-induced currents. FIG. 20A illustrates representative examples of ultrasound-induced currents before (control), during (ruthenium red), and after (washout) RR treatment (black, first stimulus; blue, second; red, third). As embodied herein, cell was held at −90 mV. Ultrasound stimulation parameters were 3.1 MHz, 1.6 MPa, 25 μs, 1 stimulus, 30 s intervals. FIG. 20B illustrates additional representative examples of ultrasound-induced currents with RR treatment. As embodied herein, cell was held at −90 mV. Ultrasound stimulation parameters were the same as FIG. 20A, except the pressure was 1.27 MPa. FIG. 20C illustrates a summary of the drug effects of ruthenium red on ultrasound-induced currents (N=5 cells). As embodied herein, responses to three stimulus presentations per condition were averaged and normalized to the mean amplitude in the control condition for each cell. Experiments were done at −70 mV or −90 mV holding potential. FIG. 20D illustrates HEK cells grouped into two populations according to ultrasound activation thresholds and ruthenium red sensitivity.
For purpose of illustration and not limitation, as embodied herein, system 1700 can be used to measure the pharmacological profile of the ultrasound-induced currents in HEK cells. Ruthenium red (RR) can be used to block non-selective cation channels, including the mechanically activated ion channels Piezol, Piezo2, as well as some TRP channels (TRPA1, TRPV3, TRPV4, TRPV5, TRPV6). As embodied herein, RR (10 μM) can block ultrasound-induced whole-cell currents in HEK cells. For example and not limitation, as embodied herein, each cell was stimulated with ultrasound five times at both −90 mV (or −70 mV) and +30 mV (or +50 mV) alternatively. The same stimulation was applied 10 minutes after RR wash-in and 10 minutes after the RR washout, respectively. […]

| SMILES | cells showing reduction in US-activated currents with NMDG substitution ([1]; NMDG-Ringers without sodium, 10 minutes after replacement, held at -90 mV) | cells showing increased response following NMDG replacement ([1]; NMDG-Ringers without sodium, held at -90 mV) | effect of replacement of sodium with NMDG on ultrasound-induced currents ([1]; un-normalized data, P=0.16 paired t test, -90 mV) | effect on ultrasound-induced whole-cell currents ([2]; 10 minutes after wash-in, held at -90 mV or -70 mV, N=5 cells) | number of cells showing enhanced US-induced currents in the presence of RR ([2]; N=5 cells analysed) | number of cells showing reduced US-evoked currents in the presence of RR ([2]; N=5 cells analysed) |
| --- | --- | --- | --- | --- | --- | --- |
| CNC[C@H](O)[C@@H](O)[C@H](O)[C@H](O)CO [NMDG, N-methyl-d-glucamine] | Four and 4/5 | one | did not show significant effect |  |  |  |
| N.N.N.N.N.N.N.N.N.N.N.N.N.N.[Cl-].[Cl-].[Cl-].[Cl-].[Cl-].[Cl-].[O-2].[O-2].[Ru+3].[Ru+3].[Ru+4] [RR, Ruthenium red] |  |  |  | can block; also recorded: varying effects | two | Three |
